Reference: patent publication US12180193B2, “Accelerating fibrosarcoma protein degrading compounds and associated methods of use” (Arvinas Operations, Inc., priority 2020, dated 2024)

Legend:
[1] = target: T1, BRAF V600E (Homo sapiens, UniProt P15056, V600E); assay: Cellular assay of target protein degradation, T-Rex 293 cells stably transfected with HA-BRAF_V600E (HA immunofluorescence, high content imaging); assay type: cell-based; settings: T-Rex 293 HA-BRAF V600E; for DC50: half maximal degradation, read-out: BRaf V600E DC50; for Dmax: maximum degradation observed
T1 construct: expressed in transfected cells
T1 sequence (P15056 whole entry V600E): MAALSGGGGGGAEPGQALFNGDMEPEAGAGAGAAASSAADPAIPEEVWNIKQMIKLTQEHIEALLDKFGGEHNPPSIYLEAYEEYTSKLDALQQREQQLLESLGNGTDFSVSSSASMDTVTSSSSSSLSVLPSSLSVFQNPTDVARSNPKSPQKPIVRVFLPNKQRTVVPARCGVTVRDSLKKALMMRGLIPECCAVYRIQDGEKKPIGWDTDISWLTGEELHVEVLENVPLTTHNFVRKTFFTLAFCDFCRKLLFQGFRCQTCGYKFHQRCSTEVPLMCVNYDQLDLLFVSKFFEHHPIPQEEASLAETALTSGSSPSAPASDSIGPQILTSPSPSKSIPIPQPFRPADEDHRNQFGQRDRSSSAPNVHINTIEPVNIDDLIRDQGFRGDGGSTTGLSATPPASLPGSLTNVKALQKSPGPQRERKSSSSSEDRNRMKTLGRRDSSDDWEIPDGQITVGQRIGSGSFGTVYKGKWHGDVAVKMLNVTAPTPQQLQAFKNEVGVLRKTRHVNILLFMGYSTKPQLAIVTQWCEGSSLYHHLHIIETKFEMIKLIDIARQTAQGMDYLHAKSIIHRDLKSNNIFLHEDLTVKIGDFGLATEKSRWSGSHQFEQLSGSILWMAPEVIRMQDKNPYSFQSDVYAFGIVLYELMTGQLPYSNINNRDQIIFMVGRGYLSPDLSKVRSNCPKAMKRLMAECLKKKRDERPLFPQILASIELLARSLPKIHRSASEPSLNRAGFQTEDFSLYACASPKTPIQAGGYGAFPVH
Experimental: Protocol for a cellular assay of target protein degradation (T-Rex 293 cells). T-Rex 293 cells were purchased from Invitrogen (#R71007), and stably transfected with a pcDNA4/TO_HA-BRAF_V600E construct, using 400 ug Zeocin for selection. V600e cells are plated in Dulbecco's Modified Eagle Medium (DMEM; Gibco #11965118) containing 10% fetal bovine serum (FBS; Gibco #16000044) and 1 ng/mL doxycycline (Selleckchem #4163) at a density of 5,000 cells/well in 50 μl on poly-D-lysine (PDL) coated, black clear bottom 96-well plates (Corning #354640) and incubated for 24 hours at 37° C. with 5% C02. The following day 50 ul of tested compound was added at 2x concentration in DMEM with a final concentration ranging from 1 μM to 0.1 nM in 0.1% dimethylsulfoxide (DMSO), and incubated for 24 hours at 37° C. with 5% CO2. At the end of the experimental treatment, the media was flicked off and cells washed once with phosphate-buffered saline (PBS)++ (PBS with CaCl and MgCl) and gently replacing with 200 μl PBS++ per well. The PBS++ was removed and 50 uL 4% paraformaldehyde (PFA; EMS #15710) in PBS++ was added, and incubate at room temperature for 15 minutes. Cells were washed once with PBS++ and 50 uL 0.1% Triton X-100 (Fisher #BP151-500) in PBS++ was added. Plate was incubate for 5 minutes at room temperature. Cells were was once with PBS++. Cells were blocked with 100 uL Licor blocking buffer (Licor #927-50000) for 1 hour at room temperature. Next, 50 uL of HA antibody (CST #3724) at 1:1000 in Licor blocking buffer was added, and the plate incubate overnight at 4° C. The plates were parafilmed to prevent evaporation. Plate was washed three times with 200 uL PBS++. Fifty microliters of HCS secondary antibody solution [1:1000 Hoechst (Invitrogen #H3570), 1:1000 phalloidin (Invitrogen #A22287) and 1:5000 Alexa fluor (Invitrogen #A11008)] was added and incubated for 1 hour. Plate was wash three times with 200 uL PBS++, and imaged on a high content reader (ImageXpress Micro XLS, Molecular Devices).
(§1) The concentration of exemplary compound that leads to half maximal degradation (DC50) as well as the maximum degradation observed (Dmax, conventionally expressed as a percentage of control), which are below in Table 2 for the exemplary compounds of Table 1.

[2] = target: T2, BRAF G466V (Homo sapiens, UniProt P15056, G466V); assay: Cellular assay of target protein degradation, T-Rex 293 cells stably transfected with HA-BRAF G466V (HA immunofluorescence, high content imaging); assay type: cell-based; settings: T-Rex 293 HA-BRAF G466V; for DC50: half maximal degradation, read-out: BRaf G466V DC50; for Dmax: maximum degradation observed
T2 construct: expressed in transfected cells
T2 sequence (P15056 whole entry G466V): as the sequence (P15056 whole entry V600E) above, with G466V, E600V counted along it
Experimental: Protocol for a cellular assay of target protein degradation (T-Rex 293 cells). T-Rex 293 cells were purchased from Invitrogen (#R71007), and stably transfected with a pcDNA4/TO_HA-BRAF G466V construct, using 400 ug Zeocin for selection. G466V cells are plated in Dulbecco's Modified Eagle Medium (DMEM; Gibco #11965118) containing 10% fetal bovine serum (FBS; Gibco #16000044) and 0.75 ng/mL doxycycline (Selleckchem #4163) at a density of 5,000 cells/well in 50 μl on poly-D-lysine (PDL) coated, black clear bottom 96-well plates (Corning #354640) and incubated for 24 hours at 37° C. with 5% CO2. The following day 50 ul of tested compound was added at 2x concentration in DMEM with a final concentration ranging from 30 nM to 3 pM in 0.1% dimethylsulfoxide (DMSO), and incubated for 24 hours at 37° C. with 5% CO2. At the end of the experimental treatment, the media was flicked off and cells washed once with phosphate-buffered saline (PBS)++ (PBS with CaCl and MgCl) and gently replacing with 200 μl PBS++ per well. The PBS++ was removed and 50 uL 4% paraformaldehyde (PFA; EMS #15710) in PBS++ was added, and incubate at room temperature for 15 minutes. Cells were washed once with PBS++ and 50 uL 0.1% Triton X-100 (Fisher #BP151-500) in PBS++ was added. Plate was incubate for 5 minutes at room temperature. Cells were was once with PBS++. Cells were blocked with 100 uL Licor blocking buffer (Licor #927-50000) for 1 hour at room temperature. Next, 50 uL of HA antibody (CST #3724) at 1:1000 in Licor blocking buffer was added, and the plate incubate overnight at 4° C. The plates were parafilmed to prevent evaporation. Plate was washed three times with 200 uL PBS++. Fifty microliters of HCS secondary antibody solution [1:1000 Hoechst (Invitrogen #H3570), 1:1000 phalloidin (Invitrogen #A22287) and 1:5000 Alexa fluor (Invitrogen #A11008)] was added and incubated for 1 hour. Plate was wash three times with 200 uL PBS++, and imaged on a high content reader (ImageXpress Micro XLS, Molecular Devices).
as §1

Row | SMILES | DC50 [1] [nM] | Dmax [1] [%] | DC50 [2] [nM] | Dmax [2] [%]
1 | COc1cc([C@@H](O)CCN2CCN(c3ccc(-c4cnc5[nH]cc(C(=O)c6c(F)ccc(NS(=O)(=O)N7CC[C@@H](F)C7)c6F)c5c4)cc3)CC2)cc2c1C(=O)N([C@H]1CCC(=O)NC1=O)C2 (stereo in doubt) [Compound 295, (3R)-N-{3-[5-(4-{4-[(3S)-3-{2-[(3S)-2,6-dioxopiperidin-3-yl]-7-methoxy-1-oxo-2,3-dihydro-1H-isoindol-5-yl}-3-hydroxypropyl]piperazin-1-yl}phenyl)-1-pyrrolo[2,3-b]pyridine-3-carbonyl]-2,4-difluorophenyl}-3-fluoropyrrolidine-1-sulfonamide] | 50 to 500 | 35 to 70 | 1 to 10 | 35 to 70
2 | O=C1CCC(N2Cc3cc(N4CCC(CN5C[C@H]6CCN(c7ccc(-c8cnc9[nH]cc(C(=O)c%10c(F)ccc(NS(=O)(=O)N%11CC[C@@H](F)C%11)c%10F)c9c8)cc7)C[C@H]6C5)CC4)ccc3C2=O)C(=O)N1 (stereo partly drawn) [Compound 3, (3R)-N-[3-(5-{4-[(3aR,7aS)-2-({1-[2-(2,6-dioxopiperidin-3-yl)-1-oxo-2,3-dihydro-1H-isoindol-5-yl)piperidin-4-yl}methyl)-octahydro-1H-pyrrolo[3,4-c]pyridin-5-yl]phenyl}-1H-pyrrolo[2,3-b]pyridine-3-carbonyl)-2,4-difluorophenyl]-3-fluoropyrrolidine-1-sulfonamide] | 5 to 50 | 35 to 70 | 1 to 10 | > 70
3 | O=C1CCC(N2Cc3cc(N4CC(N5C[C@H]6C[C@@H]5CN6c5ccc(-c6cnc7[nH]cc(C(=O)c8c(F)ccc(NS(=O)(=O)N9CC[C@@H](F)C9)c8F)c7c6)cc5)C4)ccc3C2=O)C(=O)N1 (stereo partly drawn) [Compound 5, (3R)-N-[3-(5-{4-[(1R,4R)-5-{1-[2-(2,6-dioxopiperidin-3-yl)-1-oxo-2,3-dihydro-1H-isoindol-5-yl]azetidin-3-yl}-2,5-diazabicyclo[2.2.1]heptan-2-yl]phenyl}-1H-pyrrolo[2,3-b]pyridine-3-carbonyl)-2,4-difluorophenyl]-3-fluoropyrrolidine-1-sulfonamide] | > 500 |  | 1 to 10 | 35 to 70
4 | COc1cc(N2CCC(CN3CCC4(CC3)CCN(c3ccc(-c5cnc6[nH]cc(C(=O)c7c(F)ccc(NS(=O)(=O)N8CC[C@@H](F)C8)c7F)c6c5)cc3)CC4)CC2)cc2c1C(=O)N(C1CCC(=O)NC1=O)C2 (stereo partly drawn) [Compound 6, (3R)-N-[3-(5-{4-[9-({1-[2-(2,6-dioxopiperidin-3-yl)-7-methoxy-1-oxo-2,3-dihydro-1H-isoindol-5-yl]piperidin-4-yl}methyl)-3,9-diazaspiro[5.5]undecan-3-yl]phenyl}-1H-pyrrolo[2,3-b]pyridine-3-carbonyl)-2,4-difluorophenyl]-3-fluoropyrrolidine-1-sulfonamide] | < 5 | 35 to 70 | 1 to 10 | 35 to 70
5 | O=C1CCC(N2Cc3cc(N4CCC(CN5CCC6(CCN(c7ncc(-c8cnc9[nH]cc(C(=O)c%10c(F)ccc(NS(=O)(=O)N%11CC[C@@H](F)C%11)c%10F)c9c8)cn7)CC6)C5)CC4)ccc3C2=O)C(=O)N1 (stereo partly drawn) [Compound 96, (3R)-N-[3-(5-{2-[2-({1-[2-(2,6-dioxopiperidin-3-yl)-1-oxo-2,3-dihydro-1H-isoindol-5-yl]piperidin-4-yl}methyl)-2,8-diazaspiro[4.5]decan-8-yl]pyrimidin-5-yl}-1H-pyrrolo[2,3-b]pyridine-3-carbonyl)-2,4-difluorophenyl]-3-fluoropyrrolidine-1-sulfonamide] | < 5 | < 35 |  | 

The remaining lines, values ahead:

Row | DC50 [1] [nM] | Dmax [1] [%] | DC50 [2] [nM] | Dmax [2] [%] | SMILES
6 | 5 to 50 | 35 to 70 | 1 to 10 | 35 to 70 | O=C1CCC(N2Cc3cc(N4CC5(CC(Oc6ccc(-c7cnc8[nH]cc(C(=O)c9c(F)ccc(NS(=O)(=O)N%10CC[C@@H](F)C%10)c9F)c8c7)cc6)C5)C4)ccc3C2=O)C(=O)N1 (stereo partly drawn) [Compound 1, (3R)-N-(3-{5-[4-({2-[2-(2,6-dioxopiperidin-3-yl)-1-oxo-2,3-dihydro-1H-isoindol-5-yl]-2-azaspiro[3.3]heptan-6-yl}oxy)phenyl]-1H-pyrrolo[2,3-b]pyridine-3-carbonyl}-2,4-difluorophenyl)-3-fluoropyrrolidine-1-sulfonamide]
7 | 5 to 50 | 35 to 70 | 10 to 30 | 35 to 70 | C[C@@]12CN(CC3CCN(c4ccc5c(c4)CN(C4CCC(=O)NC4=O)C5=O)CC3)C[C@]1(C)CN(c1ccc(-c3cnc4[nH]cc(C(=O)c5c(F)ccc(NS(=O)(=O)N6CC[C@@H](F)C6)c5F)c4c3)cc1)C2 (stereo partly drawn) [Compound 2, (3R)-N-[3-(5-{4-[(3aR,6aS)-5-({1-[2-(2,6-dioxopiperidin-3-yl)-1-oxo-2,3-dihydro-1H-isoindol-5-yl]piperidin-4-yl}methyl)-3a,6a-dimethyl-octahydropyrrolo[3,4-c]pyrrol-2-yl]phenyl}-1H-pyrrolo[2,3-b]pyridine-3-carbonyl)-2,4-difluorophenyl]-3-fluoropyrrolidine-1-sulfonamide]
8 | 50 to 500 | < 35 | 1 to 10 | 35 to 70 | O=C1CCC(N2Cc3cc(N4CC5(CCN(CC#Cc6ccc(-c7cnc8[nH]cc(C(=O)c9c(F)ccc(NS(=O)(=O)N%10CC[C@@H](F)C%10)c9F)c8c7)cc6)C5)C4)ccc3C2=O)C(=O)N1 (stereo partly drawn) [Compound 4, (3R)-N-(3-{5-[4-(3-{2-[2-(2,6-dioxopiperidin-3-yl)-1-oxo-2,3-dihydro-1H-isoindol-5-yl]-2,6-diazaspiro[3.4]octan-6-yl}prop-1-yn-1-yl)phenyl]-1H-pyrrolo [2,3-b]pyridine-3-carbonyl}-2,4-difluorophenyl)-3-fluoropyrrolidine-1-sulfonamide]
9 | 5 to 50 | 35 to 70 | 1 to 10 | > 70 | O=C1CCC(N2Cc3cc(N4CC(CN5CCC(c6ccc(-c7cnc8[nH]cc(C(=O)c9c(F)ccc(NS(=O)(=O)N%10CC[C@@H](F)C%10)c9F)c8c7)cc6)CC5)C4)ccc3C2=O)C(=O)N1 (stereo partly drawn) [Compound 7, (3R)-N-[3-(5-{4-[1-({1-[2-(2,6-dioxopiperidin-3-yl)-1-oxo-2,3-dihydro-1H-isoindol-5-yl]azetidin-3-yl}methyl)piperidin-4-yl]phenyl}-1H-pyrrolo[2,3-b]pyridine-3-carbonyl)-2,4-difluorophenyl]-3-fluoropyrrolidine-1-sulfonamide]
